The values below come from patent US10407422B2, “Triazolopyridine inhibitors of myeloperoxidase” (priority 2015, dated 2019).

SMILES strings stand for the structures.

Assay [1] addresses T1, myeloperoxidase (MPO) (Homo sapiens (Human), UniProt P05164). As to the kind of experiment: MPO chlorination assay (APF assay). Format: biochemical. The settings on record: potency range class. As for the experimental part: [formula] where A=minimal Y value (activity level of inhibited sample), B=maximal Y value (activity level of uninhibited sample), C=Log IC50, D=Hill Slope, x=concentration of inhibitor. MPO Chlorination Assay (APF Assay) MPO chlorination activity was measured in 100 mM KPi (pH 7.4) by utilizing the non-fluorescent reagent Aminophenyl fluorescein (APF, Invitrogen Cat. #A36003). APF is cleaved by (—OCl) to yield the fluorescent compound fluorescein. Reactions were carried out in 50 μL total volume by adding a 25 μL mixture of 200 pM myeloperoxidase and 120 mM NaCl to 100 nL inhibitor in 100% DMSO in a 384 well, non-binding surface clear bottom plate (Corning #3655). Enzyme, inhibitor, and chloride were preincubated for ten minutes at room temperature. After the ten minute preincubation, 25 μL of an APF mixture containing […], 120 mM NaCl and 10 μM H2O2 was added to the plate using the internal dispensing system of a Hammatsu FDSS 6000. Kinetic determinations were carried out immediately on the FDSS 6000 (3 minute kinetic read, 1 read every second, ex: 485 nm, em: 535 nm). IC50 values for inhibitors were calculated by taking the slope of the linear portion of the kinetic measurement (20 seconds to ˜80-120 secs). IC50 values were calculated by determining the slope of the linear portion of the kinetic trace […], and using that calculated slope to determine % inhibition occurring at each concentration of inhibitor using the following equation: [formula] where A=minimal Y value (activity level of inhibited sample), B=maximal Y value (activity level of uninhibited sample), C=Log IC50, D=Hill Slope, x=concentration of inhibitor. EPX Bromination Assay

Assay [2] concerns the target T1, myeloperoxidase (MPO). Put plainly: MPO peroxidation assay (Amplex Red assay). The class given is biochemical. The note with it: potency range class. As to the method:
MPO Peroxidation Assay (Amplex Red Assay) MPO peroxidation activity was measured in 100 mM KPi (pH 7.4) by utilizing the non-fluorescent reagent Amplex Red (Invitrogen Cat. #A12222) which can be oxidized to the highly fluorescent resorufin. Amplex Red is oxidized by the peroxidase action of MPO to resorufin. Reactions were carried out in 50 μL total volume by adding a 25 μL mixture of 200 pM myeloperoxidase and 40 nM H2O2(Sigma #349887) to 100 nL inhibitor in 100% DMSO in a 384 well Perkin Elmer Optiplate. Enzyme and compound were preincubated for ten minutes at room temperature. After the ten minute preincubation, 25 μL of an Amplex Red mixture containing 200 μM Amplex Red and 10 mM H2O2 was added to the plate. Kinetic determinations were carried out immediately on a Perkin Elmer Envision (15 minute kinetic read, Ex: 535 nm, Em: 590 nm). IC50 values were calculated by determining the slope of the linear portion of the kinetic trace (180-540 secs), and using that calculated slope to determine % inhibition occurring at each concentration of inhibitor using the following equation: [formula] where A=minimal Y value (activity level of inhibited sample), B=maximal Y value (activity level of uninhibited sample), C=Log IC50, D=Hill Slope, x=concentration of inhibitor. MPO Chlorination Assay (APF Assay)

T1 sequence (P05164 49-745): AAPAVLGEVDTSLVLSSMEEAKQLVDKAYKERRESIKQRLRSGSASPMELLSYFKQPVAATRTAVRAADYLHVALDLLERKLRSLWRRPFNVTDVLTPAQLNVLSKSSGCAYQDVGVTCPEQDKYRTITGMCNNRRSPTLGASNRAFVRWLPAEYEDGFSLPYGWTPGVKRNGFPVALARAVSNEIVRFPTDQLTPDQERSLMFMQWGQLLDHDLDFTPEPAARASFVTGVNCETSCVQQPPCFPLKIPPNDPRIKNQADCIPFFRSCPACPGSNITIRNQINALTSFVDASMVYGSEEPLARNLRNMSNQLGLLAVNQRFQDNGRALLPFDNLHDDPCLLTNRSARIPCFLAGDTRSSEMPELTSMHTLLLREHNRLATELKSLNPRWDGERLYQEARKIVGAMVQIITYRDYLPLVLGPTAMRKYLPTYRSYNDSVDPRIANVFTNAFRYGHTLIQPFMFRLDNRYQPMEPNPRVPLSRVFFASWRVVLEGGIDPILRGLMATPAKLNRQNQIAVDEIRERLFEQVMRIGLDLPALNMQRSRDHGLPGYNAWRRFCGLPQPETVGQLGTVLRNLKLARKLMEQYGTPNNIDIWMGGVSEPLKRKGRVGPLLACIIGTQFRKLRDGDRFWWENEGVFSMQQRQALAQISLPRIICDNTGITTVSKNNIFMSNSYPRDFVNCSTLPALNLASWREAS

`Nc1cc(Cc2cnn(-c3ccccc3)n2)c2nn[nH]c2n1` [Example 6, 7-((2-Phenyl-2H-1,2,3-triazol-4-yl)methyl)-3H-[1,2,3]triazolo[4,5-b]pyridin-5-amine]: the IC50 against myeloperoxidase (MPO) [1] and against myeloperoxidase (MPO) [2] was 101 to 999 nM throughout.
As for `Nc1cc(Cc2cnn(-c3cccc(Cl)c3)c2)c2nn[nH]c2n1` [Example 7, 7-((1-(3-Chlorophenyl)-1H-pyrazol-4-yl)methyl)-3H-[1,2,3]triazolo[4,5-b]pyridin-5-amine], the IC50 against myeloperoxidase (MPO) [1] and at myeloperoxidase (MPO) [2] was 1 to 100 nM in each case.
On to `Nc1cc(Cc2cnn(-c3cccc4ccccc34)c2)c2nn[nH]c2n1` [Example 9, 7-((1-(Naphthalen-1-yl)-1H-pyrazol-4-yl)methyl)-3H-[1,2,3]triazolo[4,5-b]pyridin-5-amine], for which the IC50 at myeloperoxidase (MPO) [1] and on myeloperoxidase (MPO) [2] was 1 to 100 nM throughout.
Take `Cc1cc(-n2cc(Cc3cc(N)nc4[nH]nnc34)cn2)ccc1F` [Example 10, 7-((1-(4-Fluoro-3-methylphenyl)-1H-pyrazol-4-yl)methyl)-3H-[1,2,3]triazolo[4,5-b]pyridin-5-amine]: the IC50 against myeloperoxidase (MPO) [1] was in the range of 101 to 999 nM; on myeloperoxidase (MPO) [2], 1 to 100 nM.
Take `Nc1cc(Cc2cnn(-c3cccc(-c4ccccc4)c3)c2)c2nn[nH]c2n1` [Example 11, 7-((1-([1,1′-Biphenyl]-3-yl)-1H-pyrazol-4-yl)methyl)-3H-[1,2,3]triazolo[4,5-b]pyridin-5-amine]: the IC50 at myeloperoxidase (MPO) [1] and against myeloperoxidase (MPO) [2] was 1 to 100 nM in each case.
For the compound `Nc1cc(Cc2cnn(-c3cccc(C(F)(F)F)c3)c2)c2nn[nH]c2n1` [Example 14, 7-((1-(3-(Trifluoromethyl)phenyl)-1H-pyrazol-4-yl)methyl)-3H-[1,2,3]triazolo[4,5-b]pyridin-5-amine], the IC50 at myeloperoxidase (MPO) [1] fell in the range of 101 to 999 nM; on myeloperoxidase (MPO) [2] it was 1 to 100 nM.
Taken in the same sequence, the figures for `Cc1ccnc(-n2cc(Cc3cc(N)nc4[nH]nnc34)cn2)c1` [Example 19, 7-((1-(4-Methylpyridin-2-yl)-1H-pyrazol-4-yl)methyl)-3H-[1,2,3]triazolo[4,5-b]pyridin-5-amine] were 1 to 100 nM and 1 to 100 nM.
With `Cc1cccc(-n2cc(Cc3cc(N)nc4[nH]nnc34)cn2)n1` [Example 20, 7-((1-(6-Methylpyridin-2-yl)-1H-pyrazol-4-yl)methyl)-3H-[1,2,3]triazolo[4,5-b]pyridin-5-amine], the half-inhibitory concentration (IC50) on myeloperoxidase (MPO) [1] and at myeloperoxidase (MPO) [2] was 1 to 100 nM in each case.
As for `Nc1cc(Cc2cnn(-c3cccc(Cc4ccccc4)c3)c2)c2nn[nH]c2n1` [Example 21, 7-((1-(3-Benzylphenyl)-1H-pyrazol-4-yl)methyl)-3H-[1,2,3]triazolo[4,5-b]pyridin-5-amine], the figures for the IC50 against myeloperoxidase (MPO) [1] and against myeloperoxidase (MPO) [2] were 101 to 999 nM and 1 to 100 nM, respectively.
Regarding `Cc1ccccc1-n1cc(Cc2cc(N)nc3[nH]nnc23)cn1` [Example 24, 7-((1-(2-Methylphenyl)-1H-pyrazol-4-yl)methyl)-3H-[1,2,3]triazolo[4,5-b]pyridin-5-amine], the IC50 lay in the range of 1 to 100 nM at myeloperoxidase (MPO) [1] and 101 to 999 nM against myeloperoxidase (MPO) [2].
The like results for `Cc1cccc(-n2cc(Cc3cc(N)nc4[nH]nnc34)cn2)c1` [Example 25, 7-((1-(3-Methylphenyl)-1H-pyrazol-4-yl)methyl)-3H-[1,2,3]triazolo[4,5-b]pyridin-5-amine] were, in that order, 101 to 999 nM and 1 to 100 nM.
Taken in the same sequence, the figures for `Nc1cc(Cc2cnn(-c3ccccn3)c2)c2nn[nH]c2n1` [Example 31, 7-((1-(Pyridin-2-yl)-1H-pyrazol-4-yl)methyl)-3H-[1,2,3]triazolo[4,5-b]pyridin-5-amine] were 1 to 100 nM and 1 to 100 nM.
The like results for `Nc1cc(Cc2ccn(-c3ccccc3)n2)c2nn[nH]c2n1` [Example 33, 7-((1-Phenyl-1H-pyrazol-3-yl)methyl)-3H-[1,2,3]triazolo[4,5-b]pyridin-5-amine] were, in that order, 101 to 999 nM and 101 to 999 nM.
